This is an account of results in ChEMBL document CHEMBL1614632, “Trend analysis of a database of intravenous pharmacokinetic parameters in humans for 670 drug compounds” (Drug Metab Dispos, 2008).

Numbered stars: 1 amine (or outer) side, 2 acyl side, 3 side chain; on linkers, the order of the positions; unused ones are H or OH. Bridge positions count the residues as written; N and C are the ends. Square brackets hold non-standard residues; d marks the D form. Peptide text beside a SMILES is read from it. * marks the point of attachment. pTerphenylCO(4''-OnC5H11) = CCCCCOc1ccc(-c2ccc(-c3ccc(C(=O)*)cc3)cc2)cc1; Orn(4R-OH,5R-OH) = O=C([C@H](C[C@@H](O)[C@@H](O)N[*:3])N[*:1])[*:2]; hTyr(3S-OH,4S-OH) = N[C@H](C(=O)O)[C@H](O)[C@@H](O)c1ccc(O)cc1; Pro(3S-OH,4S-Me) = C[C@H]1CN[C@H](C(=O)O)[C@H]1O; Hyp = O=C(O)[C@@H]1C[C@@H](O)CN1

Data set [1] can be described thus: clinical. The settings on record: human, in vivo, iv.
A short description of data set [2]: clinical. The settings on record: human, in vivo, iv, t1/2.
Data set [3] can be described thus: clinical. Particulars: human, in vivo, iv, CL.
Data set [4] is described as follows: clinical. The settings on record: human, in vivo, iv, Vdss.

Broadly, the MRT is a mean duration of stay, worked out from the concentration-time curve. As usually defined, the half-life is the time in which the quantity being followed falls by half. Usually clearance stands for the volume of plasma or blood freed of the substance per unit of time. Broadly, the Vd is the apparent volume that relates the amount in the body to the concentration in plasma or blood. Read a low Vd as little distribution into tissue. With `CCCCCOc1ccc(-c2ccc(-c3ccc(C(=O)N[C@H]4C[C@@H](O)[C@@H](O)NC(=O)[C@@H]5[C@@H](O)[C@@H](C)CN5C(=O)[C@H]([C@@H](C)O)NC(=O)[C@H]([C@H](O)[C@@H](O)c5ccc(O)cc5)NC(=O)[C@@H]5C[C@@H](O)CN5C(=O)[C@H]([C@@H](C)O)NC4=O)cc3)cc2)cc1` [ANIDULAFUNGIN] ({pTerphenylCO(4''-OnC5H11)}-[Orn(4R-OH,5R-OH)]T[Hyp][hTyr(3S-OH,4S-OH)]T[Pro(3S-OH,4S-Me)]; lactam 1-C), in “clinical [1]”, the MRT is 45 h. For the same compound, the half-life in the data set “clinical [2]” is 40 h. Besides, the clearance in the data set “clinical [3]” was determined as 0.21 mL/min/kg. Moreover, the distribution volume (Vd) in the data set “clinical [4]” worked out at 0.57 L/kg.
For `CC(CCc1ccc2c(c1)OCO2)NCC(O)c1ccc(O)c(C(N)=O)c1` (stereo not drawn) [MEDROXALOL], in that order: 8.2 h, 11 h, 16 mL/min/kg and 7.9 L/kg.
In “clinical [1]”, `CN1C(=O)[C@H](O)C[C@H]1c1cccnc1` came in with an MRT of 7.9 h. This compound also had a half-life in “clinical [2]” of 5.9 h. Besides, the clearance in the data set “clinical [3]” was found to be 1.8 mL/min/kg. For the same compound, in “clinical [4]”, the Vd amounted to 0.85 L/kg.
The corresponding values for `CN(C)CCC=C1c2ccccc2CCc2ccccc21` [AMITRIPTYLINE] are 24 h, 17 h, 6.1 mL/min/kg and 8.7 L/kg.
Consider `CC[C@]1(O)C[C@H]2CN(CCc3c([nH]c4ccccc34)[C@@](C(=O)OC)(c3cc4c(cc3OC)N(C=O)[C@H]3[C@@](O)(C(=O)OC)[C@H](OC(C)=O)[C@]5(CC)C=CCN6CC[C@]43[C@@H]65)C2)C1` [VINCRISTINE], for which, in “clinical [1]”, the MRT turned out to be 20 h. The half-life in “clinical [2]” is 23 h. In “clinical [3]”, this compound came in with a clearance of 2 mL/min/kg. The compound further displayed a Vd in the data set “clinical [4]” of 2.4 L/kg.
For `COc1cccc(C2(O)CCCCC2CN(C)C)c1` (stereo not drawn) [TRAMADOL], in that order: 7.2 h, 5.8 h, 6.5 mL/min/kg and 2.8 L/kg.
For `CC1CCCC(C)N1CCCC(O)(c1ccccc1)c1ccccn1` (stereo not drawn) [PIRMENOL], in “clinical [1]”, the MRT was 13 h. This compound also showed a half-life in “clinical [2]” of 8.4 h. For the same compound, the clearance in the data set “clinical [3]” stood at 1.8 mL/min/kg. In “clinical [4]”, this compound showed a Vd of 1.4 L/kg.
The compound `N[C@@H](C(=O)N[C@@H]1C(=O)N2C(C(=O)O)=C(CSc3c[nH]nn3)CS[C@H]12)c1ccc(O)cc1` [CEFATRIZINE] came in with an MRT in “clinical [1]” of 1.1 h. Moreover, the half-life in “clinical [2]” is 1.2 h. Moreover, the clearance in “clinical [3]” is 3.3 mL/min/kg. In the data set “clinical [4]”, this compound returned a Vd of 0.22 L/kg.
For `CC(C)(C)[C@H](NC(=O)[C@H](CC1CCCC1)CN(O)C=O)C(=O)N1CCN(Cc2ccc3c(c2)OCO3)CC1`, in that order: 5.9 h, 9.4 h, 3.1 mL/min/kg and 1.1 L/kg.
For `COC(=O)C1=C(C)NC(C)=C(C(=O)OCC(C)C)C1c1ccccc1[N+](=O)[O-]` (stereo not drawn) [NISOLDIPINE], in that order: 6.5 h, 11 h, 15 mL/min/kg and 5.5 L/kg.
For `C=CCN1CCCC1CNC(=O)c1cc2[nH]nnc2cc1OC` (stereo not drawn) [ALIZAPRIDE], in that order: 4 h, 2.8 h, 6.6 mL/min/kg and 1.6 L/kg.
Regarding `O=C(O)[C@H]1/C(=C/CO)O[C@@H]2CC(=O)N21` [CLAVULANIC ACID], the MRT in the data set “clinical [1]” worked out at 1 h. The compound further gave a half-life in the data set “clinical [2]” of 0.9 h. In addition, the clearance in “clinical [3]” was 3.1 mL/min/kg. The compound further showed a Vd in “clinical [4]” of 0.22 L/kg.
The corresponding values for `CCCCCNC(=N)N/N=C/c1c[nH]c2ccc(OC)cc12` [TEGASEROD] are 4.9 h, 11 h, 18 mL/min/kg and 5.3 L/kg.
The corresponding values for `NC[C@H]1O[C@H](O[C@H]2[C@H](O)[C@@H](O[C@H]3O[C@H](CO)[C@@H](O)[C@H](N)[C@H]3O)[C@H](N)C[C@@H]2N)[C@H](O)[C@@H](O)[C@@H]1O` [KANAMYCIN] are 3.1 h, 2.1 h, 1.4 mL/min/kg and 0.26 L/kg.
The corresponding values for `NCCCNc1ccc2c(CNCCO)nn3c4c(O)ccc(O)c4c(=O)c1c23` are 11 h, 32 h, 18 mL/min/kg and 12 L/kg.
Take `CO[C@H]1/C=C/O[C@@]2(C)Oc3c(C)c(O)c4c(c3C2=O)C2=NC3(CCN(CC(C)C)CC3)NC2=C(NC(=O)/C(C)=C\C=C\[C@H](C)[C@H](O)[C@@H](C)[C@@H](O)[C@@H](C)[C@H](OC(C)=O)[C@@H]1C)C4=O` [RIFABUTIN]: the MRT in the data set “clinical [1]” came out at 65 h. The compound also gave a half-life in “clinical [2]” of 37 h. The compound also came in with a clearance in the data set “clinical [3]” of 2.4 mL/min/kg. Moreover, the Vd in the data set “clinical [4]” was found to be 9.3 L/kg.
For `CC(C)(C)NCC(O)c1cc(O)cc(O)c1` (stereo not drawn) [TERBUTALINE], in that order: 7.4 h, 15 h, 3.4 mL/min/kg and 1.5 L/kg.
The corresponding values for `CCN1C[C@H]2CN(C)C[C@H](C1)C2OC(=O)c1ccc(Cl)cc1` (stereo partly drawn) are 8.8 h, 8.6 h, 17 mL/min/kg and 9 L/kg.
The corresponding values for `Cc1nccn1CC1CCc2c(c3ccccc3n2C)C1=O` (stereo not drawn) [ONDANSETRON] are 5.2 h, 3.4 h, 5.8 mL/min/kg and 1.8 L/kg.
Regarding `O=C(O)c1cc(/N=N/c2ccc(O)c(C(=O)O)c2)ccc1O` [OLSALAZINE], the MRT in the data set “clinical [1]” came out at 0.97 h. The compound further gave a half-life in the data set “clinical [2]” of 0.9 h. Moreover, the clearance in the data set “clinical [3]” came to 1.2 mL/min/kg. For the same compound, the Vd in the data set “clinical [4]” is 0.07 L/kg.
The corresponding values for `CCOc1ccccc1OCC1CNCCO1` (stereo not drawn) [VILOXAZINE] are 5.8 h, 4.1 h, 2.1 mL/min/kg and 0.73 L/kg.
The corresponding values for `OCCN1C[C@H](O)[C@@H](O)[C@H](O)[C@H]1CO` [MIGLITOL] are 2.7 h, 2.3 h, 1.7 mL/min/kg and 0.28 L/kg.
For `C[C@@H]1C(=O)O[C@H]2[C@H](O)[C@@]34[C@H]5C[C@@H](C(C)(C)C)[C@]36[C@@H](OC(=O)[C@@H]6O)O[C@@]4(C(=O)O5)[C@@]12O` [GINKOLIDE B], in that order: 6.6 h, 5.2 h, 2.3 mL/min/kg and 0.91 L/kg.
`C/C(=C\c1csc(C)n1)[C@@H]1C[C@@H]2O[C@]2(C)CCC[C@H](C)[C@H](O)[C@@H](C)C(=O)C(C)(C)[C@@H](O)CC(=O)N1` [IXABEPILONE]: in the data set “clinical [1]”, the MRT was determined as 18 h. Further, the half-life in the data set “clinical [2]” was 17 h. Besides, the clearance in the data set “clinical [3]” is 10 mL/min/kg. Besides, the Vd in the data set “clinical [4]” stood at 11 L/kg.
The compound `CN(C)C(=O)Oc1cccc([N+](C)(C)C)c1.[Br-]` [NEOSTIGMINE BROMIDE] had an MRT in “clinical [1]” of 1.3 h. Moreover, in the data set “clinical [2]”, the half-life is 1.3 h. In addition, the clearance in “clinical [3]” came out at 9.2 mL/min/kg. Moreover, the Vd in “clinical [4]” came to 0.74 L/kg.
`CC(=O)CCCCn1c(=O)c2c(ncn2C)n(C)c1=O` [PENTOXIFYLLINE] gave an MRT in “clinical [1]” of 0.77 h. The half-life in “clinical [2]” was 1.2 h. Further, the clearance in “clinical [3]” is 39 mL/min/kg. The Vd in the data set “clinical [4]” was 1.8 L/kg.
As for `Cc1onc(-c2c(Cl)cccc2Cl)c1C(=O)N[C@@H]1C(=O)N2[C@@H]1SC(C)(C)[C@@H]2C(=O)O` [DICLOXACILLIN], in the data set “clinical [1]”, the MRT is 0.92 h. The half-life in “clinical [2]” is 0.88 h. The clearance in “clinical [3]” amounted to 2 mL/min/kg. Also, the Vd in the data set “clinical [4]” worked out at 0.11 L/kg.
On to `CCCCCN(CCCOC)C(=O)[C@@H](CCC(=O)O)NC(=O)c1ccc(Cl)c(Cl)c1` [DEXLOXIGLUMIDE], for which, in the data set “clinical [1]”, the MRT came to 0.79 h. This compound gave a half-life in “clinical [2]” of 1.2 h. In the data set “clinical [3]”, the clearance was found to be 3.7 mL/min/kg. This compound had a Vd in the data set “clinical [4]” of 0.18 L/kg.
For `C[C@H]([C@](O)(Cn1cncn1)c1ccc(F)cc1F)S(C)(=O)=O` [GENACONAZOLE], in that order: 54 h, 49 h, 0.19 mL/min/kg and 0.62 L/kg.
The corresponding values for `C#C[C@]1(OS(=O)(=O)O)CC[C@H]2[C@@H]3CCc4cc(O)ccc4[C@H]3CC[C@@]21C` are 7.8 h, 9.3 h, 1.3 mL/min/kg and 0.61 L/kg.
The corresponding values for `Cc1cc(O)c2c(=O)c3c(O)cc(O)c4c5c(O)cc(O)c6c(=O)c7c(O)cc(C)c8c1c2c(c34)c(c78)c65` [HYPERICIN] are 32 h, 42 h, 0.13 mL/min/kg and 0.25 L/kg.
`CC1(C)S[C@@H]2[C@H](NC(=O)C(C(=O)O)c3ccccc3)C(=O)N2[C@H]1C(=O)O` (stereo partly drawn) [CARBENICILLIN] yielded an MRT in the data set “clinical [1]” of 1.5 h. The compound also gave a half-life in “clinical [2]” of 1.1 h. In the data set “clinical [3]”, this compound gave a clearance of 1.9 mL/min/kg. The same compound displayed a Vd in “clinical [4]” of 0.17 L/kg.
Take `COCc1c(C(C)C)nc(C(C)C)c(/C=C/[C@@H](O)C[C@@H](O)CC(=O)O)c1-c1ccc(F)cc1` [CERIVASTATIN]: in “clinical [1]”, the MRT was found to be 1.8 h. The half-life in the data set “clinical [2]” is 1.8 h. This compound registered a clearance in the data set “clinical [3]” of 2.9 mL/min/kg. The Vd in the data set “clinical [4]” is 0.33 L/kg.
In turn, `CCOC(=O)[C@]1(c2ccccc2)CCC=C[C@H]1NC` [NORTILIDINE] had an MRT in “clinical [1]” of 4.2 h. The half-life in the data set “clinical [2]” was 4.4 h. In “clinical [3]”, the clearance worked out at 9.9 mL/min/kg. The same compound yielded a Vd in “clinical [4]” of 2.5 L/kg.
Take `c1ccc2c(c1)OCC(C1=NCCN1)O2` (stereo not drawn) [IDAZOXAN]: in the data set “clinical [1]”, the MRT was found to be 5.5 h. The compound further had a half-life in the data set “clinical [2]” of 4.2 h. The compound also showed a clearance in the data set “clinical [3]” of 10 mL/min/kg. In “clinical [4]”, this compound registered a Vd of 3.3 L/kg.
The compound `CCN(CC)CCCC(C)Nc1c2ccc(Cl)cc2nc2ccc(OC)cc12` (stereo not drawn) [QUINACRINE] returned an MRT in “clinical [1]” of 150 h. In the data set “clinical [2]”, the half-life was 120 h. The clearance in the data set “clinical [3]” amounted to 5.1 mL/min/kg. The same compound displayed a Vd in “clinical [4]” of 45 L/kg.
For `Cc1ncc([N+](=O)[O-])n1CCO` [METRONIDAZOLE], in that order: 7.8 h, 7.1 h, 0.85 mL/min/kg and 0.4 L/kg.
